From patent publication US20130196986A1 (priority 2010, published 2013)
pIC50: −log10 of the molar value.

Target: T1, P2X7 receptor (Homo sapiens, UniProt Q99572)
T1 construct: stably expressing the full length P2X7 receptor; expressed in transfected cells
T1 sequence (Q99572 1-595): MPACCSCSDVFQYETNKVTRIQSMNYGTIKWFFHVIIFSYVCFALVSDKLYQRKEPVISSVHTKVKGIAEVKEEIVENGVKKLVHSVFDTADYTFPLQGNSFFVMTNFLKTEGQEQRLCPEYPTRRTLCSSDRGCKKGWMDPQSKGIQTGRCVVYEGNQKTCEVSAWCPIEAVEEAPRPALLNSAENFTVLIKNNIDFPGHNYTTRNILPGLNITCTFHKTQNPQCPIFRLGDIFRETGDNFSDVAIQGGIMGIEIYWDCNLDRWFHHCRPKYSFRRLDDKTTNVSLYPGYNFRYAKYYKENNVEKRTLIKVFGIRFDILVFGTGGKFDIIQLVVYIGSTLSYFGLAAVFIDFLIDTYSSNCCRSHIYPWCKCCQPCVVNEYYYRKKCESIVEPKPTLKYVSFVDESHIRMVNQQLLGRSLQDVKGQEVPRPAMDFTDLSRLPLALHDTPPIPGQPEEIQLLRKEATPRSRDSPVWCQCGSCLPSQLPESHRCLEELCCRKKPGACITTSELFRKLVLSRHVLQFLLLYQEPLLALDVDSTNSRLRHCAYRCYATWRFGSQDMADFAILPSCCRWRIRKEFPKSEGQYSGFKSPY
Experiment: Ca++ flux assay (FLIPR) in P2X7-HEK-293 cell line stably expressing the full length P2X7 receptor, Bz-ATP activation
Assay type: cell-based
Settings: P2X7-HEK-293 cells; agonist Bz-ATP; fluorescence as total area over 90 seconds; read-out: P2X7 Ca Flux hu IC50
Method: The ability of Triazolopyrazinone Compounds to inhibit P2X7 function can be determined in Ca^++ flux assay using a P2X7-HEK-293 cell line stably expressing the full length P2X7 receptor. The assay protocol is as described in Cheewatrakoolpong et al., Biochem. Biophys. Res. Commun. 332:17-27 (2005) with minor modification, and is as summarized hereinafter. Briefly, cells were plated in poly-D-lysine-coated wells, and incubated at 37° C. for 24 hours. Cells were then incubated for 1 hour with a loading buffer which contains a dye sensitive to changes in Ca^++ concentration (lx Calcium Plus no wash dye from Molecular Devices, Sunnyvale, Calif.). The test compounds were added to the wells in the dye loading step. Plates containing the wells were transferred to a Fluorometric Imaging Plate Reader (Molecular Devices, Sunnyvale, Calif.). The cells were activated by the addition of the P2X7 receptor agonist 2′(3) —O-(4-benzoylbenzoyl)adenosine 5′-triphosphate (Bz-ATP from Sigma-Aldrich, St. Louis, Mo.), and the fluorescence was monitored for 90 seconds. The fluorescent signal was determined as the total area over the 90 second run time. Using this protocol, representative Triazolopyrazinone Compounds, compounds 1471 were tested. Tables 3 to 6 show the concentration at which 50% of the maximum response in the Ca^++ was inhibited (IC50) for each of the test compounds.

| Compound | pIC50 |
| --- | --- |
| Cc1c(-n2ccn3c(SCc4nc5ccccc5n4C)nnc3c2=O)cccc1C(F)(F)F [Compound 3, 3-((1-methyl-1H-benzo[d]imidazol-2-yl)methylthio)-7-(2-methyl-3-(trifluoromethyl)phenyl)-[1,2,4]triazolo[4,3-a]pyrazin-8(7H)-one] | 5.25 |
| Cc1c(-n2ccn3c(SCc4cccc5c4-c4ccccc4C5)nnc3c2=O)cccc1C(F)(F)F [Compound 4, 3-((9H-fluoren-4-yl)methylthio)-7-(2-methyl-3-(trifluoromethyl)phenyl)-[1,2,4]triazolo[4,3-a]pyrazin-8(7H)-one] | 6.58 |
| Cc1cccc(-c2ccccc2CSc2nnc3c(=O)n(-c4cccc(C(F)(F)F)c4C)ccn23)c1 [Compound 5, 7-(2-methyl-3-(trifluorornethyl)phenyl)-3-((3'-methylbiphenyl-2-yl)methylthio)-[1,2,4]triazolo[4,3-a]pyrazin-8(7H)-one] | 7.52 |
| Cc1ccc(-c2ccccc2CSc2nnc3c(=O)n(-c4cccc(C(F)(F)F)c4C)ccn23)s1 [Compound 6, 7-(2-methyl-3-(trifluoromethyl)phenyl)-3-(2-(5-methylthiophen-2-yl)benzylthio)-[1,2,4]triazolo[4,3-a]pyrazin-8(7H)-one] | 7.43 |
| Cc1ccc(-c2ccccc2CSc2nnc3c(=O)n(-c4cccc(C(F)(F)F)c4C)ccn23)cc1 [Compound 7, 7-(2-methyl-3-(trifluoromethyl)phenyl)-3-((4′-methylbiphenyl-2-yl)methylthio)-[1,2,4]triazolo[4,3-a]pyrazin-8(7H)-one] | 7.18 |
| Cc1c(-n2ccn3c(SCc4ccccc4-c4ccc(C(F)(F)F)cc4)nnc3c2=O)cccc1C(F)(F)F [Compound 8, 7-(2-methyl-3-(trifluoromethyl)phenyl)-3-((4′-(trifluoromethyl)biphenyl-2-yl)rnethylthio)-[1,2,4]triazolo[4,3-a]pyrazin-8(7H)-one] | 6.04 |
| Cc1c(-n2ccn3c(SCc4ccccc4-c4ccc(Cl)cc4)nnc3c2=O)cccc1C(F)(F)F [Compound 9, 3-((4′-chlorobiphenyl-2-yl)nrethylthio)-7-(2-methyl-3-(trifluoromethyl)phenyl)-[1,2,4]triazolo[4,3-a]pyrazin-8(7H)-one] | 6.99 |
| Cc1c(-n2ccn3c(SCc4ccccc4-c4ccc(F)cc4)nnc3c2=O)cccc1C(F)(F)F [Compound 10, 3-((4′-fluorobiphenyl-2-yl)rnethylthio)-7-(2-methyl-3-(trifluoromethyl)phenyl)-[1,2,4]triazolo[4,3-a]pyrazin-8(7H)-one] | 7.37 |
| Cc1c(-n2ccn3c(SCc4ccccc4I)nnc3c2=O)cccc1C(F)(F)F [Compound 11] | 6.98 |
| Cc1c(-n2ccn3c(SCc4ccccc4Br)nnc3c2=O)cccc1C(F)(F)F [Compound 12, 3-(2-bromobenzylthio)-7-(2-methyl-3-(trifluoromethyl)phenyl)-[1,2,4]triazolo[4,3-a]pyrazin-8(7H)-one] | 6.97 |
| Cc1c(-n2ccn3c(SCc4cccc(F)c4Cl)nnc3c2=O)cccc1C(F)(F)F [Compound 13, 3-(2-chloro-3-fluorobenzylthio)-7-(2-methyl-3-(trifluoromethyl)phenyl)-[1,2,4]triazolo[4,3-a]pyrazin-8(7H)-one] | 6.89 |
| Cc1c(-n2ccn3c(SCc4ccsc4)nnc3c2=O)cccc1C(F)(F)F [Compound 14, 7-(2-methyl-3-(trifluoromethyl)phenyl)-3-(thiophen-3-ylmethylthio)-[1,2,4]triazolo[4,3-a]pyrazin-8(7H)-one] | 7.42 |
| Cc1c(-n2ccn3c(SCc4cccs4)nnc3c2=O)cccc1C(F)(F)F [Compound 15, 7-(2-methyl-3-(trifluoromethyl)phenyl)-3-(thiophen-2-ylmethylthio)-[1,2,4]triazolo[4,3-a]pyrazin-8(7H)-one] | 7.52 |
| Cc1c(Cl)cccc1-n1ccn2c(SCc3cccc(F)c3Cl)nnc2c1=O [Compound 16, 7-(3-chloro-2-methylphenyl)-3-(2-chloro-3-fluorobenzylthio)-[1,2,4]triazolo[4,3-a]pyrazin-8(7H)-one] | 6.54 |
| Cc1onc(-c2ccccc2)c1CSc1nnc2c(=O)n(-c3cccc(C(F)(F)F)c3C)ccn12 [Compound 17, 7-(2-methyl-3-(trifluoromethyl)phenyl)-3-((5-methyl-3-phenylisoxazo1-4-yl)methylthio)-[1,2,4]triazolo[4,3-a]pyrazin-8(7H)-one] | 6.26 |
| Cc1c(-n2ccn3c(SCc4ccccc4C(C)(C)C)nnc3c2=O)cccc1C(F)(F)F [Compound 18, 3-(2-tert-butylbenzylthio)-7-(2-methyl-3-(trifluoromethyl)phenyl)-[1,2,4]triazolo[4,3-a]pyrazin-8(7H)-one] | 7.24 |
| Cc1c(Cl)cccc1-n1ccn2c(SCc3ccccc3C(C)(C)C)nnc2c1=O [Compound 19, 3-(2-tent-butylbenzylthio)-7-(3-chloro-2-methylphenyl)-[1,2,4]triazolo[4,3-a]pyrazin-8(7H)-one] | 6.78 |
| Cc1c(-n2ccn3c(SCc4ccccc4Oc4ccccc4)nnc3c2=O)cccc1C(F)(F)F [Compound 20, 7-(2-methyl-3-(trifluoromethyl)phenyl)-3-(2-phenoxybenzylthio)-[1,2,4]triazolo[4,3-a]pyrazin-8(7H)-one] | 6.84 |
| [2H]c1c([2H])c([2H])c(CSc2nnc3c(=O)n(-c4cccc(C(F)(F)F)c4C)ccn23)c([2H])c1[2H] [Compound 21, deuterated-7-[2-methyl-3-(trifluoromethyl)phenyl]-3-[(phenyl-(d5)-methy)thio]-1,2,4-triazolo[4,3-a]pyrazin-8(7H)-one] | 7.07 |
| Cc1c(-n2ccn3c(SC(C(=O)c4ccccc4)c4ccccc4)nnc3c2=O)cccc1C(F)(F)F (stereo not shown) [Compound 22, 7-(2-methyl-3-(trifluoromethyl)phenyl)-3-(2-oxo-1,2-diphenylethylthio)-[1,2,4]triazolo[4,3-a]pyrazin-8(7H)-one] | 5.84 |
| Cc1c(-n2ccn3c(SCc4ccccc4-c4cccs4)nnc3c2=O)cccc1C(F)(F)F [Compound 23, 7-(2-methyl-3-(trifluoromethyl)phenyl)-3-(2-(thiophen-2-yl)benzylthio)-[1,2,4]triazolo[4,3-a]pyrazin-8(7H)-one] | 7.39 |
| Cc1c(Cl)cccc1-n1ccn2c(SCc3ccccc3B(O)O)nnc2c1=O [Compound 24, 2-((7-(3-chloro-2-methylphenyl)-8-oxo-7,8-dihydro-[1,2,4]triazolo[4,3-a]pyrazin-3-ylthio)rnethyl)phenylboronic acid] | 6.00 |
| O=c1c2nnc(SC(c3ccccc3)c3ccccc3)n2ccn1-c1cccc(C(F)(F)F)c1Cl [Compound 25, 3-(benzhydrylthio)-7-(2-chloro-3-(trifluoromethyl)phenyl)-[1,2,4]triazolo[4,3-a]pyrazin-8(7H)-one] | 7.38 |
| O=c1c2nnc(SC3c4ccccc4-c4ccccc43)n2ccn1-c1cccc(C(F)(F)F)c1Cl [Compound 26, 3-(9H-fluoren-9-ylthio)-7-(2-chloro-3-(trifluoromethyl)phenyl)-[1,2,4]triazolo[4,3-a]pyrazin-8(7H)-one] | 7.33 |
| O=c1c2nnc(SCc3cccc4ccccc34)n2ccn1-c1cccc(C(F)(F)F)c1Cl [Compound 27, 7-(2-chloro-3-(trifluoromethyl)phenyl)-3-(naphthalen-1-ylmethylthio)-[1,2,4]triazolo[4,3-a]pyrazin-8(7H)-one] | 6.78 |
